These results are taken from publication PMC3177007 (Cancer gene therapy, 2011).

One data set can be described thus: Zeta potential. Format: physicochemical. As to conditions: nanoplexes at selected ratios: H3K(+H)4b:siRNA 2.2:1; (RGD-PEG)-H3K(+H)4b/H2K4b/siRNA 3:0.8:1; (RGD-PEG)^4-H3K(+H)4b/H2K4b/siRNA 4:0.8:1.
A short description of data set [1]: Particle size by dynamic light scattering. The settings on record: DLS; H3K(+H)4b:siRNA 2.2:1 (w/w). Format: physicochemical.
For the next data set, the system named is MDA-MB-435 cells. The data set is described as follows: Cellular uptake of Cy3 labeled-siRNA nanoplexes, confocal microscopy. It counts as cell-based, human. As to conditions: cells incubated 4 h with nanoplexes.
In a further data set the test system is siRNA. Briefly: Gel retardation assay of HK:siRNA nanoplexes. It counts as binding. The settings on record: H2K4b:siRNA ratio 0.8 to 1 (w:w); data not shown.
The conditions of data set [2]: H2K4b alone; ref [18]; cited from earlier work.

As for KHHHKHHHKHHHHKHHHK [H3K(+H)4b], the zeta potential in the data set “Zeta potential” is given as 37 mV. Also, the “size of the siRNA nanoplex” value in data set [1] came out at 149 ± 41 nm. For the same sequence, in the data set with MDA-MB-435 cells, the “intracellular fluorescence pattern of Cy3 labeled-siRNA” value is “discrete intracellular particles”.

For KHKHHKHHKHHKHHKHHKHK [H2K4b], the “siRNA retained in gel retardation assay” value in the data set on siRNA was 35%. For the same sequence, in data set [2], the “effectiveness as carrier of siRNA in silencing its targets” value is recorded as “not an effective carrier”.
